Key:
rape = experiment: Test B pre/postemergence rape; format: in vivo, Brassica napus
How it was run: (§1)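 Test chemicals in a non-phytotoxic solvent mixture with surfactant were sprayed preemergence onto planted seeds and postemergence onto plants 2 to 18 cm tall (1- to 4-leaf stage). After twelve to sixteen days in a greenhouse, injury was visually rated against untreated controls from 0 (no effect) to 10 (complete control).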

morningglory = experiment: Test B pre/postemergence morningglory; format: in vivo, Ipomoea hederacea
How it was run: as §1

sugar beet = experiment: Test B pre/postemergence sugar beet; format: in vivo, Beta vulgaris
How it was run: as §1

velvetleaf = experiment: Test B pre/postemergence velvetleaf; format: in vivo, Abutilon theophrasti
How it was run: as §1

blackgrass = experiment: Test B pre/postemergence blackgrass; format: in vivo, Alopecurus myosuroides
How it was run: as §1

pigweed = experiment: Test B pre/postemergence pigweed; format: in vivo, Amaranthus retroflexus
How it was run: as §1

surinam grass = experiment: Test B pre/postemergence surinam grass; format: in vivo, Brachiaria decumbens
How it was run: as §1

duck salad = experiment: Test B flood test duck salad; format: in vivo, Heteranthera limosa
How it was run: (§2)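 Flood test on plants grown to the 2-leaf stage; treated plants kept in greenhouse twelve to sixteen days, then visually rated against controls on a 0 (no effect) to 10 (complete control) scale.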

giant foxtail = experiment: Test B pre/postemergence giant foxtail; format: in vivo, Setaria faberii
How it was run: as §1

smallflower flatsedge = experiment: Test B flood test smallflower flatsedge; format: in vivo, Cyperus difformis
How it was run: as §2

bamyardgrass = experiment: Test B flood test barnyardgrass; format: in vivo, Echinochloa crus-galli
How it was run: as §2

cocklebur = experiment: Test B pre/postemergence cocklebur; format: in vivo, Xanthium strumarium
How it was run: as §1

bedstraw = experiment: Test B pre/postemergence bedstraw; format: in vivo, Galium aparine
How it was run: as §1

purple nutsedge = experiment: Test B pre/postemergence purple nutsedge; format: in vivo, Cyperus rotundus
How it was run: as §1

soybean = experiment: Test B pre/postemergence soybean; format: in vivo, Glycine max
How it was run: as §1

corn = experiment: Test B pre/postemergence corn; format: in vivo, Zea mays
How it was run: as §1

[1] = Postemergence, Rate 62 g/ha, scale 0 to 10, 0 is no effect, 10 is complete control
[2] = Postemergence, Rate 250 g/ha, scale 0 to 10, 0 no effect, 10 complete control
[3] = Preemergence, Rate 62 g/ha, scale 0 to 10 (0 no effect, 10 complete control)
[4] = Preemergence, Rate 125 g/ha, scale 0 to 10 (0 no effect, 10 complete control)
[5] = Preemergence, Rate 250 g/ha, scale of 0 to 10 where 0 is no effect and 10 is complete control
[6] = Preemergence, Rate 500 g/ha, scale 0 (no effect) to 10 (complete control)
[7] = Rate 125 g/ha, Postemergence, scale 0 to 10, 0 no effect, 10 complete control
[8] = Rate 500 g/ha, Postemergence, scale 0 to 10, 0 no effect, 10 complete control
[9] = Rate 31 g/ha, Postemergence section (flood test species), scale 0 to 10
[10] = Rate 125 g/ha, Postemergence section (flood test species), scale 0 to 10, 0 no effect, 10 complete control
[11] = Rate 250 g/ha, headed Pre-emergence (flood test species), scale 0 to 10 (0 no effect, 10 complete control)
[12] = Rate 500 g/ha, headed Pre-emergence (flood test species), scale 0 to 10 (0 no effect, 10 complete control)
[13] = Rate 1000 g/ha, Pre-emergence (as headed), scale 0 to 10
[14] = Rate 2000 g/ha, Pre-emergence (as headed), scale 0 to 10
[15] = flood test, listed under Postemergence, Rate 250 g/ha, scale 0 to 10, 0 no effect, 10 complete control

Structure (SMILES): Cc1ccccc1Cn1c(=O)on(C(=O)N(c2ccc(F)cc2F)C(C)C)c1=O [Compound 87]
- Rape plant response rating (rape; [1]): 0
- Rape plant response rating (rape; [2]): 2
- Rape plant response rating (rape; [3]): 0
- Plant response rating, Rape (rape; [4]): 0
- Plant response rating, Rape (rape; [5]): 0
- Rape plant response rating (rape; [6]): 5
- Rape plant response rating (rape; [7]): 0
- Rape plant response rating (rape; [8]): 3
- Morningglory plant response rating (morningglory; [1]): 4
- Morningglory plant response rating (morningglory; [2]): 7
- Morningglory plant response rating (morningglory; [3]): 0
- Plant response rating, Morningglory (morningglory; [4]): 0
- Plant response rating, Morningglory (morningglory; [5]): 0
- Morningglory plant response rating (morningglory; [6]): 0
- Morningglory plant response rating (morningglory; [7]): 7
- Morningglory plant response rating (morningglory; [8]): 9
- Sugarbeets plant response rating (sugar beet; [1]): 0
- Sugarbeets plant response rating (sugar beet; [2]): 3
- Sugarbeets plant response rating (sugar beet; [3]): 0
- Plant response rating, Sugarbeets (sugar beet; [4]): 0
- Plant response rating, Sugarbeets (sugar beet; [5]): 3
- Sugarbeets plant response rating (sugar beet; [6]): 9
- Sugarbeets plant response rating (sugar beet; [7]): 3
- Sugarbeets plant response rating (sugar beet; [8]): 8
- Velvetleaf plant response rating (velvetleaf; [1]): 0
- Velvetleaf plant response rating (velvetleaf; [2]): 0
- Velvetleaf plant response rating (velvetleaf; [3]): 0
- Plant response rating, Velvetleaf (velvetleaf; [4]): 0
- Plant response rating, Velvetleaf (velvetleaf; [5]): 3
- Velvetleaf plant response rating (velvetleaf; [6]): 0
- Velvetleaf plant response rating (velvetleaf; [7]): 0
- Velvetleaf plant response rating (velvetleaf; [8]): 1
- Blackgrass plant response rating (blackgrass; [1]): 0
- Blackgrass plant response rating (blackgrass; [2]): 1
- Blackgrass plant response rating (blackgrass; [3]): 2
- Plant response rating, Blackgrass (blackgrass; [4]): 3
- Plant response rating, Blackgrass (blackgrass; [5]): 5
- Blackgrass plant response rating (blackgrass; [6]): 7
- Blackgrass plant response rating (blackgrass; [7]): 0
- Blackgrass plant response rating (blackgrass; [8]): 4
- Redroot pigweed plant response rating (pigweed; [1]): 0
- Redroot pigweed plant response rating (pigweed; [2]): 5
- Redroot pigweed plant response rating (pigweed; [3]): 4
- Plant response rating, Redroot pigweed (pigweed; [4]): 4
- Plant response rating, Redroot pigweed (pigweed; [5]): 8
- Redroot pigweed plant response rating (pigweed; [6]): 10
- Redroot pigweed plant response rating (pigweed; [7]): 0
- Redroot pigweed plant response rating (pigweed; [8]): 2
- B. signalgrass plant response rating (surinam grass; [1]): 0
- B. signalgrass plant response rating (surinam grass; [2]): 0
- B. signalgrass plant response rating (surinam grass; [3]): 0
- Plant response rating, B. signalgrass (surinam grass; [4]): 2
- Plant response rating, B. signalgrass (surinam grass; [5]): 4
- B. signalgrass plant response rating (surinam grass; [6]): 5
- B. signalgrass plant response rating (surinam grass; [7]): 0
- B. signalgrass plant response rating (surinam grass; Rate 500 g/ha, Postemergence, scale of 0 to 10 where 0 is no effect and 10 is complete control): 2
- Ducksalad plant response rating (duck salad; [1]): 0
- Ducksalad plant response rating (duck salad; [9]): 0
- Ducksalad plant response rating (duck salad; [10]): 0
- Ducksalad plant response rating (duck salad; [11]): 0
- Plant response rating, Ducksalad (duck salad; [12]): 0
- Ducksalad plant response rating (duck salad; [13]): 0
- Ducksalad plant response rating (duck salad; [14]): 0
- Ducksalad plant response rating (duck salad; [15]): 0
- Giant foxtail plant response rating (giant foxtail; [1]): 0
- Giant foxtail plant response rating (giant foxtail; [2]): 3
- Giant foxtail plant response rating (giant foxtail; [3]): 8
- Plant response rating, Giant foxtail (giant foxtail; [4]): 9
- Plant response rating, Giant foxtail (giant foxtail; [5]): 10
- Giant foxtail plant response rating (giant foxtail; [6]): 10
- Giant foxtail plant response rating (giant foxtail; [7]): 2
- Giant foxtail plant response rating (giant foxtail; [8]): 6
- S. Flatsedge plant response rating (smallflower flatsedge; [1]): 0
- S. Flatsedge plant response rating (smallflower flatsedge; Pre-emergence, Rate 1000 g/ha, scale 0 to 10 (0 no effect, 10 complete control)): 0
- S. Flatsedge plant response rating (smallflower flatsedge; [10]): 0
- S. Flatsedge plant response rating (smallflower flatsedge; [11]): 0
- Plant response rating, S. Flatsedge (smallflower flatsedge; [12]): 0
- S. Flatsedge plant response rating (smallflower flatsedge; [14]): 0
- S. Flatsedge plant response rating (smallflower flatsedge; [15]): 0
- Barnyardgrass plant response rating (bamyardgrass; [1]): 0
- Barnyardgrass plant response rating (bamyardgrass; [9]): 0
- Barnyardgrass plant response rating (bamyardgrass; [10]): 0
- Barnyardgrass plant response rating (bamyardgrass; [11]): 0
- Plant response rating, Barnyardgrass (bamyardgrass; [12]): 0
- Barnyardgrass plant response rating (bamyardgrass; [13]): 0
- Barnyardgrass plant response rating (bamyardgrass; Rate 2000 g/ha, Pre-emergence (as headed), scale 0 to 10, 0 no effect, 10 complete control): 0
- Barnyardgrass plant response rating (bamyardgrass; [15]): 0
- Cocklebur plant response rating (cocklebur; [1]): 0
- Cocklebur plant response rating (cocklebur; [2]): 2
- Cocklebur plant response rating (cocklebur; [3]): 0
- Plant response rating, Cocklebur (cocklebur; [4]): 0
- Plant response rating, Cocklebur (cocklebur; [5]): 0
- Cocklebur plant response rating (cocklebur; [6]): 0
- Cocklebur plant response rating (cocklebur; [7]): 1
- Cocklebur plant response rating (cocklebur; [8]): 2
- Bedstraw plant response rating (bedstraw; [1]): 2
- Bedstraw plant response rating (bedstraw; [2]): 6
- Bedstraw plant response rating (bedstraw; [3]): 0
- Plant response rating, Bedstraw (bedstraw; [4]): 0
- Plant response rating, Bedstraw (bedstraw; [5]): 0
- Bedstraw plant response rating (bedstraw; [6]): 3
- Bedstraw plant response rating (bedstraw; [7]): 4
- Bedstraw plant response rating (bedstraw; [8]): 8
- Nutsedge plant response rating (purple nutsedge; [1]): 0
- Nutsedge plant response rating (purple nutsedge; [2]): 0
- Nutsedge plant response rating (purple nutsedge; [3]): 0
- Plant response rating, Nutsedge (purple nutsedge; [4]): 0
- Plant response rating, Nutsedge (purple nutsedge; [5]): 0
- Nutsedge plant response rating (purple nutsedge; [6]): 0
- Nutsedge plant response rating (purple nutsedge; [7]): 0
- Nutsedge plant response rating (purple nutsedge; [8]): 0
- Soybean plant response rating (soybean; [1]): 2
- Soybean plant response rating (soybean; [2]): 2
- Soybean plant response rating (soybean; [3]): 0
- Plant response rating, Soybean (soybean; [4]): 0
- Plant response rating, Soybean (soybean; [5]): 0
- Soybean plant response rating (soybean; [6]): 4
- Soybean plant response rating (soybean; [7]): 2
- Soybean plant response rating (soybean; [8]): 5
- Corn plant response rating (corn; [1]): 0
- Corn plant response rating (corn; [2]): 0
- Corn plant response rating (corn; [3]): 0
- Plant response rating, Corn (corn; [4]): 0
- Plant response rating, Corn (corn; [5]): 0
- Corn plant response rating (corn; [6]): 2
- Corn plant response rating (corn; [7]): 0
- Corn plant response rating (corn; [8]): 2

Reference: patent US6737383B1, “Herbicidal oxadiazolidines” (priority 1999, dated 2004)
